Measurements: patent US5859025A, “Fluoroalkyl- and fluoroalkoxy-substituted heterocyclic bradykinin antagonists, process for their preparation, and their use” (Hoechst Aktiengesellschaft, priority 1996, dated 1999)

Experiments:
bradykinin B2 receptor = target: T1, bradykinin B2 receptor (Cavia porcellus, UniProt O70526); assay: binding to the bradykinin B2 receptor of the guinea-pig ileum (3H-bradykinin competition); settings: 3H-bradykinin 0.25 to 0.3 nmol/l, guinea-pig ileum membranes; for Ki: LIGAND program; for IC50: room temperature, 60 minutes
T1 construct: The guinea-pig ilea are roughly freed of the intestinal contents by careful stripping; from tissue; host or cells: guinea-pig ileum, membrane preparation
T1 sequence (O70526 1-372): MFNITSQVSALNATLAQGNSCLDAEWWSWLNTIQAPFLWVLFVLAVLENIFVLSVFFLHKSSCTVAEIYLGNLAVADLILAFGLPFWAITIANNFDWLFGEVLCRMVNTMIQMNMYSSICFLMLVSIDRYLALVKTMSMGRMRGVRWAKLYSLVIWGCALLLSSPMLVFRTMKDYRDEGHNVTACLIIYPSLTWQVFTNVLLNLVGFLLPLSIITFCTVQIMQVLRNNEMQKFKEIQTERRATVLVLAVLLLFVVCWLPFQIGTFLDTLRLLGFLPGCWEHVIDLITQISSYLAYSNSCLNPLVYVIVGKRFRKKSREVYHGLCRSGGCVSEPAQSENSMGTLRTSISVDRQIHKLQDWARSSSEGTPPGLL
Procedure: The measurement of the binding to the bradykinin B2 receptor of the guinea-pig ileum is described in the following (R. B. Innis et al., Proc. Natl. Acad. Sci. USA; 17 (1981) 2630): […]
25 mM TES (SIGMA, Order No: T-4152)
1 mM 1,10-phenanthroline (SIGMA; Order No: P-9375)
25 mM TES (SIGMA; Order No.: T-4152)
1 mM 1,10-phenanthroline (SIGMA; Order No.: P-9375)
0,1% albumin, bovine (SIGMA; Order No.: A-7906)
140 mg/ml bacitracin (SIGMA; Order No.: B-0125)
1 mM dithiothreitol (SIGMA; Order No.: D-0632)
1 mM captopril® 1-[(2S)-3-mercapto-2-methylpropionyl]-L-proline
Both buffers are adjusted to pH 6.8 using 5 molar NaOH.
The guinea-pig ilea are roughly freed of the intestinal contents by careful stripping and cleaned in 0.9% strength NaCl solution. The pieces of ilea, which are about 2 cm long, are transferred to ice-cold TES buffer (about 1 g/10 ml) and homogenized in an ice-bath for 30 sec. using an Ultraturrax. The homogenate is then filtered through 3 layers of gauze and the filtrate is centrifuged at 50,000 g for 10 minutes. The supernatant is discarded, and the pellet is rehomogenized in the same volume of TES buffer and centrifuged again at 50,000 g for 10 minutes. The pellet is rehomogenized in incubation buffer (about 1 g/5 ml) and frozen at -70° C. in cryotubes, divided into 2 ml portions.
The protein concentration of the ready-to-use membrane suspension is determined according to LOWRY and should be about 15 mg/100 ml.
All incubations are carried out at room temperature for 60 minutes on microtiter plates (96×300 ml) in 200 ml volumes. All mixtures in incubation buffer. To this end, 50 ml of the radioligand, 50 ml of the preparation to be tested and 100 ml of the membrane suspension are pipetted successively into the depressions of the microtiter plate. […]
a) Saturation Experiments (hot saturation)
Preparation of the ^3 H-bradykinin solution: For the saturation experiments, the concentrations 0.05, 0.1, 0.2, 0.4, 0.6, 0.8, 1.0, 1.5, 2.0, 2.5 and 3.0 nmol/l are employed, which correspond to 0.05 to 3.0 pmol/ml. After the preparation of the corresponding dilutions, 50 ml each per sample are initially introduced.
Nonspecific binding: For each concentration of the radioactive ligand, the nonspecific binding must be determined. This can be achieved by addition of a high concentration (1-100 mmol) of the unlabeled ligand, other antagonists or agonists of the bradykinin receptor. […] For this, 1.862 mg are dissolved in 1 ml of dimethyl sulfoxide (DMSO), diluted 1:25 with incubation buffer and 50 ml of this solution are added to the samples in the microtiter plates. The reaction is started by the addition of […] of the membrane suspension. […]
b) Competition Experiments (IC50)
Here a fixed quantity of the radioactive ligand (0.25 to 0.3 nmol/l of ^3 H-bradykinin) and various concentrations of the unlabeled agonists or antagonists are employed. 50 ml of the preparations or standards to be tested in the concentrations 10^-5 to 10^-10 mol/l are added to in each case 50 ml of the ^3 H-bradykinin solution and the reaction is started by addition of […] of membrane suspension. In this test too, triplicate determinations are carried out and three samples are incubated with […] of HOE 140 to determine the nonspecific binding.
The preparations to be tested for competition are always dissolved at a concentration of 1 mmol/l in dimethyl sulfoxide (DMSO), and then further diluted with DMSO. This solution is then diluted 1:25 with incubation buffer.
After incubation, the samples are filtered off in a Skatron cell harvester through a Whatmann GF/B filter previously moistened with 0.1% PEI (polyethylenimine) and washed with 10 ml of ice-cold TES buffer per sample. The still moist filters are punched out into mini-scintillation tubes and the tubes are filled with 3 ml of scintillator. After about 12 hours soaking time, the samples are briefly shaken and measured in a beta counter. […]

[1] = tested on: bradykinin contraction of the isolated rabbit jugular vein; assay: in-vitro duration of action on the isolated rabbit jugular (bradykinin-induced contraction); type: cell-based, rabbit (white New Zealand); settings: for inhibition at 10 µM: Oryctolagus cuniculus, 0.25 h, time 15 min, test substance (10^-5 M) present in bath, bradykinin 10^-7 M; for inhibition at 10 µM / Inhibition of the bradykinin contraction in %: mean, n=6; for inhibition after 4 h (in words): test substance 10^-5 M; for Inhibition of the bradykinin contraction in %: after rinsing (test substance 10^-5 M no longer in bath)
Procedure: The compounds of Examples 1, X and Y were compared. Examples X and Y are described in EP-A 622 361.
Comparison of the in-vitro duration of action of heterocyclic bradykinin antagonists on the isolated rabbit jugular
Male rabbits (white New Zealand, breeder: Mollegaard, Denmark, 2.5-3.0 kg) are killed by injection of an overdose of Pentobarbital-Na (1 ml of Narcoren®+0.5 ml of heparin). The two jugular veins are exposed, cut spirally and pieces of about 1.5 cm length are suspended in buffered organ baths (Krebs-Henseleit buffer) at a pretension of 0.5 g.
After a rest period of 30 min, contractions are induced by addition of bradykinin (10^-7 M), which serve as the starting value. Test substances are then added at a concentration of 10^-5 M. The inhibitory values shown are mean values (n=6). […] The bradykinin contraction is then ended by rinsing with just buffer solution.
At each further time shown, stimulation was again carried out with bradykinin (in the absence of the test substance in the bath fluid) and at the end of the contraction the bath fluid was replaced by just buffer solution.

[2] = tested on: bradykinin-induced contraction of the guinea-pig ileum; assay: antagonist action on the bradykinin-induced contraction of the guinea-pig ileum; type: cell-based; settings: Cavia porcellus, 10 min; isolated guinea-pig ileum, bradykinin 4×10^-8 mol/l, time of action 10 min, 37° C.
Procedure: The determinations of the antagonist action on the bradykinin-induced contraction of the guinea-pig ileum were carried out according to the following protocol:
Guinea-pigs weighing about 300 g (Morioth strain,--) are killed by a blow to the neck and exsanguinated. The ileum is dissected out in a length of about 20 cm, rinsed with Tyrode solution (Record syringe) and thus freed of intestinal contents. It is then divided into sections 1.5 cm long. These are fixed in organ baths of capacity 10 ml, which are filled with Tyrode solution, and connected to extension-measuring strips (isometric contraction measurement). The preload is 1 g. The Tyrode solution is warmed to 37° C. in a water bath and bubbled through with compressed air. After an interval of 30 min. the experiment is begun. After recording the biological zero line, bradykinin at a final concentration of 4×10^-8 mol/l per organ bath is added and the […] is recorded. The organ bath is then rinsed for 3 min with Tyrode solution and, after a break of 20 min., bradykinin is added again. The maximum of the contraction is achieved (control). Rinse again, break. The bradykinin antagonist is then added (time of action 10 min). Bradykinin is then added again and the ensuing contraction is compared with that of the control. The experiment is recorded on a pen recorder. […]
______________________________________ […]

| Ki (bradykinin B2 receptor) [nM] | IC50 (bradykinin B2 receptor) [nM] | Structure (SMILES) | inhibition at 10 µM [1] [%] | Inhibition of the bradykinin contraction in % ([1]; time 210 min) [%] | Inhibition of the bradykinin contraction in % ([1]; time 240 min) [%] | further results |
| --- | --- | --- | --- | --- | --- | --- |
| 3.4 | 28 | Cc1ccc2cccc(OCc3c(Cl)ccc(N(C)C(=O)CNC(=O)Cc4ccc(C(F)(F)F)cc4)c3Cl)c2n1 [Example 8] |  |  |  |  |
| 4 | 40 | Cc1ccc2c(C)ccc(OCc3c(Cl)ccc(N(C)C(=O)CNC(=O)/C=C/c4ccc(C(F)(F)F)cc4)c3Cl)c2n1 [Example 2] |  |  |  | IC50 [2]: 1500 nM |
| 1 | 9 | Cc1ccc2cccc(OCc3c(Cl)ccc(N(C)C(=O)CNC(=O)/C=C/c4ccc(C(F)(F)F)cc4)c3Cl)c2n1 [Example 1, 8-[3-(N-(4-trans-Trifluoromethylcinnamoylglycyl)-N-methylamino)-2,6-dichlorobenzyloxy]-2-methylquinoline] | 98 | 95 | 92 | IC50 [2]: 44 nM; in-vitro duration of action (in words) ([1]; isolated rabbit jugular, compared with Examples Y and X): distinctly longer in-vitro duration of action; Inhibition of the bradykinin contraction in % ([1]; time 30 min, bradykinin): 99%; Inhibition of the bradykinin contraction in % ([1]; time 60 min): 99%; Inhibition of the bradykinin contraction in % ([1]; time 270 min): 87%; Inhibition of the bradykinin contraction in % ([1]; time 300 min): 78%; Inhibition of the bradykinin contraction in % ([1]; time 330 min): 71%; Inhibition of the bradykinin contraction in % ([1]; time 360 min (6 h)): 68% |

Further lines, the compound ahead of its results:

| Structure (SMILES) | Ki (bradykinin B2 receptor) [nM] | IC50 (bradykinin B2 receptor) [nM] | inhibition at 10 µM [1] [%] | Inhibition of the bradykinin contraction in % ([1]; time 210 min) [%] | Inhibition of the bradykinin contraction in % ([1]; time 240 min) [%] | further results |
| --- | --- | --- | --- | --- | --- | --- |
| COc1cccc(/C=C/C(=O)NCC(=O)N(C)c2ccc(Cl)c(COc3cccc4ccc(C)nc34)c2Cl)c1 [Example Y] |  |  | 96 | 59 | 31 | inhibition after 4 h (in words) [1]: no longer show any inhibition; Inhibition of the bradykinin contraction in % ([1]; time 30 min, bradykinin): 97%; Inhibition of the bradykinin contraction in % ([1]; time 180 min): 84%; Inhibition of the bradykinin contraction in % ([1]; time 270 min): 3% |
| Cc1ccc2cccc(OCc3c(Cl)ccc(N(C)C(=O)CNC(=O)OCc4ccc(OC(F)(F)F)cc4)c3Cl)c2n1 [Example 22] | 10 | 95 |  |  |  |  |
| Cc1ccc(/C=C/C(=O)NCC(=O)N(C)c2ccc(Cl)c(COc3cccc4ccc(C)nc34)c2Cl)cc1 [Example X] |  |  | 97 | 58 | 30 | inhibition after 4 h (in words) [1]: no longer show any inhibition; Inhibition of the bradykinin contraction in % ([1]; time 120 min): 95%; Inhibition of the bradykinin contraction in % ([1]; time 150 min): 87%; Inhibition of the bradykinin contraction in % ([1]; time 180 min): 74% |
| Cc1ccc2cccc(OCc3c(Cl)ccc(N(C)C(=O)CNC(=S)Nc4cccc(C(F)(F)F)c4)c3Cl)c2n1 [Example 29, 8-[3-N-(3-Trifluoromethylphenylthioureidoacetyl-N-methylamino)-2,6-dichlorobenzyloxy]-2-methylquinoline] | 5.1 | 38 |  |  |  |  |
